This test deals with kynurenine production in IFN-γ-treated KATO-III cells. As to the kind of experiment: Inhibitory activity on kynurenine production (Test Example 1). It is filed as cell-based. As to conditions: Homo sapiens, IFN-γ treatment, culture for 96 hours, read-out: IC50 value, inhibition of kynurenine production. Here is the method:
This assay was performed according to a method modified from the method described in the Journal of Biological Chemistry (J. Biol. Chem.), vol. 263, pp. 2041-2048 (1988). Culture of KATO-III derived from human gastric cancer cells was performed by use of RPMI 1640 (GIBCO, 11875) supplemented with 10 vol % FBS (GIBCO, 10091-148, lot. 665285). 1 μL of a DMSO solution of the test substance was diluted with 199 μL of the culture medium, and the diluted solution was added to wells of a 384 well plate (10 μL/well). Then, IFN-γ (Sigma, 1-3265) was added to the culture medium so that the concentration of IFN-γ was 31.25 ng/mL, and the KATO-III cells were suspended at 50,000 cells/ml, in the culture medium. 40 μL of the suspension was added to each well (2,000 cells/well), and culture of the KATO-III cells was performed at 37° C. under a 5% CO2 atmosphere for 96 hours. The final concentration of DMSO was limited to 0.1 vol % or less so that DMSO itself might not affect the kynurenine concentration measured by this assay. After the culture, 10 μL of a 30 w/v % aqueous trichloroacetic acid solution was added to each well, and incubation was performed at 65° C. for 30 minutes. The plate was centrifuged at 2,500×g for 5 minutes, and then 15 μL of the supernatant in each well was transferred into another 384 well plate. To each of the transferred supernatants, 15 μL of a 2 w/v % solution of p-dimethylaminobenzaldehyde in acetic acid was added, incubation was performed at 65° C. for 20 minutes, and then the absorbance at 480 nm was measured.
[formula] Sample: the absorbance value of the well to which a DMSO solution containing the test substance was added and in which cells were treated with IFN-γ. Blank: the absorbance value of the well to which only DMSO, not the test substance was added and in which cells were treated with IFN-γ. Control: the absorbance value of the well to which only DMSO, not the test substance was added and in which cells were not treated with IFN-γ.
In this assay, expression of IDO in KATO-III cells is induced by IFN-γ treatment and then kynurenine in the culture medium is quantified. It is known that the kynurenine concentration in a culture medium increases in proportion to the enzymatic activity of intracellular IDO (for example, the Journal of Biological Chemistry (J. Biol. Chem.), vol. 263, pp. 2041-2048 (1988)). […] It is known that kynurenine production is inhibited by IDO inhibitors (for example, the Journal of Clinical Investigation (J. Clin. Invest.), vol. 117, No. 5, pp. 1147-1154 […]), and thus it is expected that Compound (I) also has an inhibitory effect on IDO.

Each structure is given as a SMILES string. Some results are limits rather than exact numbers.

Usually IC50 stands for the concentration needed to halve the response being measured. Regarding `O=S(=O)(Nc1nc2ccccc2nc1OC(c1cccnc1)C(F)(F)F)C1CCCC1` (centres unmarked) [Compound 169, N-{3-[2,2,2-trifluoro-1-(pyridin-3-yl)ethoxy]quinoxalin-2-yl}cyclopentanesulfonamide], the IC50 is under 1000 nM. As for `N#Cc1cccc(C(Oc2nc3ccccc3nc2NS(=O)(=O)CC2CC2)C(F)(F)F)c1` (centres unmarked) [Compound 309, 1-cyclopropyl-N-{3-[1-(3-cyanophenyl)-2,2,2-trifluoroethoxy]quinoxalin-2-yl}methanesulfonamide], the figure is under 1000 nM; as for `Cn1cncc1C(Oc1nc2ccccc2nc1NS(=O)(=O)c1ccccc1Cl)C(F)(F)F` (centres unmarked) [Compound 175, 2-chloro-N-{3-[2,2,2-trifluoro-1-(1-methyl-1H-imidazol-5-yl)ethoxy]quinoxalin-2-yl}benzenesulfonamide], under 1000 nM. Turning to `Cc1noc(C)c1S(=O)(=O)Nc1nc2ccccc2nc1OC(c1cccnc1)C(F)(F)F` (centres unmarked) [Compound 155, 3,5-dimethyl-N-{3-[2,2,2-trifluoro-1-(pyridin-3-yl)ethoxy]-quinoxalin-2-yl}isoxazole-4-sulfonamide], the half-maximal inhibitory concentration (IC50) is under 1000 nM. Regarding `O=S(=O)(CC(F)(F)F)Nc1nc2ccccc2nc1OC(c1cccnc1)C(F)(F)F` (centres unmarked) [Compound 193, 2,2,2-trifluoro-N-{3-[2,2,2-trifluoro-1-(pyridin-3-yl)-ethoxy]quinoxalin-2-yl}ethanesulfonamide], the IC50 was under 1000 nM. Take `CC(C)(C)OC(=O)NCCc1ccc(S(=O)(=O)Nc2nc3ccccc3nc2OC(c2cccnc2)C(F)(F)F)cc1` (centres unmarked) [Compound 208, tert-butyl 4-(N-{3-[2,2,2-trifluoro-1-(pyridin-3-yl)ethoxy]quinoxalin-2-yl}sulfamoyl)phenethylcarbamate]: the IC50 was under 1000 nM. For `Cn1cc(C(Oc2nc3ccccc3nc2NS(=O)(=O)c2cccc(Cl)c2Cl)C(F)(F)F)cn1` (centres unmarked) [Compound 96, 2,3-dichloro-N-{3-[2,2,2-trifluoro-1-(1-methyl-1H-pyrazol-4-yl)ethoxy]quinoxalin-2-yl}benzenesulfonamide], the IC50 is under 1000 nM. The value for `CCCS(=O)(=O)Nc1nc2ccccc2nc1O[C@@H](c1cnc(C)s1)C(F)(F)F` [Compound 343, (R)—N-{3-[2,2,2-trifluoro-1-(2-methylthiazol-5-yl)ethoxy]-quinoxalin-2-yl}propane-1-sulfonamide] was 1000 to 10000 nM; that for `COCCCNS(=O)(=O)Nc1nc2ccccc2nc1OC(c1cccnc1)C(F)(F)F` (centres unmarked) [Compound 206, N-{3-[2,2,2-trifluoro-1-(pyridin-3-yl)ethoxy]quinoxalin-2-yl}-N′-(3-methoxypropyl)-sulfuric diamide] was under 1000 nM.

On to `O=S(=O)(Nc1nc2ccccc2nc1OCc1ccc2ccccc2c1)c1cc(Cl)ccc1Cl` [Compound 28, 2,5-dichloro-N-{3-[(2-naphthyl)methoxy]quinoxalin-2-yl}-benzenesulfonamide], for which the IC50 is under 1000 nM. As for `Cc1nc(C)c(C(Oc2nc3ccccc3nc2NS(=O)(=O)c2ccccc2Cl)C(F)(F)F)s1` (centres unmarked) [Compound 106, 2-chloro-N-{3-[2,2,2-trifluoro-1-(2,4-dimethylthiazol-5-yl)ethoxy]quinoxalin-2-yl}benzenesulfonamide], the figure is under 1000 nM; as for `O=S(=O)(Nc1nc2ccccc2nc1O[C@H](c1cccnc1)C(F)(F)F)NC1CC1` [Compound 317, (R)—N-cyclopropyl-N′-{3-[2,2,2-trifluoro-1-(pyridin-3-yl)-ethoxy]quinoxalin-2-yl}sulfuric diamide], under 1000 nM; as for `CCCNS(=O)(=O)Nc1nc2ccccc2nc1OC(c1cccnc1)C(F)(F)F` (centres unmarked) [Compound 194, N-propyl-N′-{3-[2,2,2-trifluoro-1-(pyridin-3-yl)ethoxy]-quinoxalin-2-yl}sulfuric diamide], under 1000 nM. Take `CCCNS(=O)(=O)Nc1nc2ccccc2nc1OC(c1cnc(C)s1)C(F)(F)F` (centres unmarked) [Compound 323, N-propyl-N′-{3-[2,2,2-trifluoro-1-(2-methylthiazol-5-yl)-ethoxy]quinoxalin-2-yl}sulfuric diamide]: the IC50 is under 1000 nM. `CCOC(CCNS(=O)(=O)Nc1nc2ccccc2nc1OC(c1cccnc1)C(F)(F)F)OCC` (centres unmarked) [Compound 272, N-{3-[2,2,2-trifluoro-1-(pyridin-3-yl)ethoxy]quinoxalin-2-yl}-N′-(3,3-diethoxypropyl)-sulfuric diamide]: the IC50 is under 1000 nM. The value for `CS(=O)(=O)Nc1nc2ccccc2nc1OC(c1cccnc1)C(F)(F)F` (centres unmarked) [Compound 148, N-{3-[2,2,2-trifluoro-1-(pyridin-3-yl)ethoxy]quinoxalin-2-yl}methanesulfonamide] was 1000 to 10000 nM.

Consider `O=S(=O)(Nc1nc2ccccc2nc1OCc1cccc(C(F)(F)F)c1)c1cccc(Cl)c1Cl` [Compound 18, 2,3-dichloro-N-{3-[(3-trifluoromethylphenyl)methoxy]-quinoxalin-2-yl}benzenesulfonamide], for which the IC50 was under 1000 nM. For `CCCS(=O)(=O)Nc1nc2ccccc2nc1O[C@H](c1ccc(Cl)nc1)C(F)(F)F` [Compound 348, (R)—N-{3-[2,2,2-trifluoro-1-(6-chloropyridin-3-yl)ethoxy]-quinoxalin-2-yl}propane-1-sulfonamide], the IC50 was under 1000 nM.

With `CCCS(=O)(=O)Nc1nc2ccccc2nc1OC(C(F)(F)F)C1(F)CCN(C(C)=O)CC1` (centres unmarked) [Compound 354, N-{3-[2,2,2-trifluoro-1-(1-acetyl-4-fluoropiperidin-4-yl)-ethoxy]quinoxalin-2-yl}propane-1-sulfonamide], the IC50 is under 1000 nM. As for `O=S(=O)(Nc1nc2ccccc2nc1OC(c1ccc(Cl)cc1)C(F)(F)F)c1ccccc1Cl` (centres unmarked) [Compound 53, 2-chloro-N-{3-[2,2,2-trifluoro-1-(4-chlorophenyl)ethoxy]-quinoxalin-2-yl}benzenesulfonamide], the figure is under 1000 nM. The value for `Cc1noc(C)c1S(=O)(=O)Nc1nc2ccccc2nc1OC(c1cncs1)C(F)(F)F` (centres unmarked) [Compound 178, 3,5-dimethyl-N-{3-[2,2,2-trifluoro-1-(thiazol-5-yl)ethoxy]-quinoxalin-2-yl}isoxazole-4-sulfonamide] was under 1000 nM.

Consider `Nc1ccccc1S(=O)(=O)Nc1nc2ccccc2nc1OC(c1cccnc1)C(F)(F)F` (centres unmarked) [Compound 157, 2-amino-N-{3-[2,2,2-trifluoro-1-(pyridin-3-yl)ethoxy]-quinoxalin-2-yl}benzenesulfonamide], for which the IC50 is under 1000 nM. For `CCCNS(=O)(=O)Nc1nc2ccccc2nc1OC(c1ccc(C)[n+]([O-])c1)C(F)(F)F` (centres unmarked) [Compound 284, 2-methyl-5-{2,2,2-trifluoro-1-[3-(N-propylsulfamoylamino)-quinoxalin-2-yloxy]ethyl}pyridine 1-oxide], the IC50 is under 1000 nM. As for `Cc1nn(C)c(Cl)c1S(=O)(=O)Nc1nc2ccccc2nc1OC(c1cncn1C)C(F)(F)F` (centres unmarked) [Compound 170, 5-chloro-1,3-dimethyl-N-{3-[2,2,2-trifluoro-1-(1-methyl-1H-imidazol-5-yl)ethoxy]quinoxalin-2-yl}-1H-pyrazole-4-sulfonamide], the figure is under 1000 nM; as for `O=S(=O)(Nc1nc2ccccc2nc1OC(c1ccc(F)cc1)C(F)(F)F)c1ccccc1Cl` (centres unmarked) [Compound 59, 2-chloro-N-{3-[2,2,2-trifluoro-1-(4-fluorophenyl)ethoxy]-quinoxalin-2-yl}benzenesulfonamide], under 1000 nM. The value for `CCCS(=O)(=O)Nc1nc2ccccc2nc1OC(c1cncc(OC)c1)C(F)(F)F` (centres unmarked) [Compound 334, N-{3-[2,2,2-trifluoro-1-(5-methoxypyridin-3-yl)ethoxy]-quinoxalin-2-yl}propane-1-sulfonamide] was under 1000 nM; that for `CCC1(COc2nc3ccccc3nc2NS(=O)(=O)c2ccccc2Cl)CCOCC1` [Compound 245, 2-chloro-N-{3-[(4-ethyltetrahydro-2H-pyran-4-yl)methoxy]-quinoxalin-2-yl}benzenesulfonamide] was under 1000 nM; that for `CCCS(=O)(=O)Nc1nc2ccccc2nc1OC(c1cncn1C)C(F)(F)F` (centres unmarked) [Compound 277, N-{3-[2,2,2-trifluoro-1-(1-methyl-1H-imidazol-5-yl)ethoxy]-quinoxalin-2-yl}propane-1-sulfonamide] was 1000 to 10000 nM.

For the compound `O=S(=O)(Nc1nc2ccccc2nc1OC(c1ccc(C(F)(F)F)cc1)C(F)(F)F)c1cccc(Cl)c1Cl` (centres unmarked) [Compound 36, 2,3-dichloro-N-{3-[2,2,2-trifluoro-1-(4-trifluoromethyl-phenyl)ethoxy]quinoxalin-2-yl}benzenesulfonamide], the IC50 was under 1000 nM.
